Results reported in patent US20190255056A1, “A HCK INHIBITOR AND A BCL-2 INHIBITOR FOR TREATING ACUTE MYELOID LEUKEMIA” (RIKEN, priority 2016, published 2019).

Key:
human FLT3−ITD+AML cells = assay: In vivo treatment of AML-engrafted NSG recipients (PDX model); set-up: species or system NSG mice
Protocol: NSG newborns received 1.5Gy total body irradiation followed by intravenous injection of purified human cells. Donor cells were purified according to their cell surface phenotype using monoclonal antibodies against human CD34, CD38, CD90, CD45RA, CD3, CD19 and CD33. Engraftment levels of human cells in the NSG recipients were assessed by retro-orbital phlebotomy and flow cytometry.
(§1) In vivo treatment experiments were performed with AML-engrafted NSG recipients using RK-20449 (Ref. STM 2013) and ABT-199 (Souers A J et al., Nature Medicine 2013, Pan R et al., Cancer Discovery 2014). The recipients were administered RK-20449 intraperitoneally 30 mg/kg twice a day, ABT-199 orally 70 mg/kg once a day or both RK-20449 and ABT-199 at these dosing schedules. The mice were sacrificed when they became moribund or after 4˜6 weeks of treatment, and human AML chimerisms in BM, spleen and PB were determined using flow cytometry. In secondary transplantation, each mouse received 7-AAD(-) viable human CD45+cells from 2.5% of total BM that remained in AML-engrafted recipients at the time of sacrifice, to simulate relapse occurring from residual viable AML cells.
These studies examined whether inhibition of a mutated kinase alone eliminates AML in vivo using a NSG PDX model. Patient-derived cells with a FLT3−ITD mutation engraft in vivo and initiate AML, but the individual FLT3−ITD+cells harbor multiple other mutations in various combinations. These mutations may contribute to therapy responsiveness in cooperation with FLT3−ITD, and a PDX model that reflects mutational complexity of human AML cells is necessary to examine the contribution of multiple co-existing mutations. Therefore, the frequency of AML-associated somatic mutations was evaluated in the disclosed PDX model using newborn NSG xenotransplantation, and the same sets of mutations were present in patient-derived leukemia-initiating population and engrafted AML cells in recipients (see, FIG. 4). […] The extent that targeting FLT3 pathway alone can result in reduction of human AML cells harboring multiple mutations in vivo was examined as follows. RK-20449 is a pyrrolo-pyrimidine-derivative multi-kinase inhibitor of Src family kinase HCK and FLT3 that effectively target human AML cells. Therefore, RK-20449 was administered to 58 NSG mice engrafted with AML from 19 FLT3−ITD+AML patients and the results are shown in FIG. 8.

[1] = test system: residual viable human CD45+AML cells (leukemia-initiating capacity); assay: Secondary (serial) transplantation of residual human AML cells after in vivo treatment; set-up: species or system NSG mice; settings: 2.5% of residual viable human CD45+ cells transplanted per secondary recipient; single-agent groups
Protocol: as §1
Leukemia-initiating capacity remaining after treatment was compared by isolating residual viable human CD45+AML cells from each treated mouse and transplanting a pre-determined fraction into secondary NSG recipients.

Structure (SMILES) | response to ABT-199 alone (human FLT3−ITD+AML cells; ABT-199 orally 70 mg/kg once a day, majority of cases) | AML initiation in secondary recipients from treated BM [1] | residual BM human CD45+chimerism (human FLT3−ITD+AML cells; RK-20449 alone 30 mg/kg i.p. twice a day, five patients with complete responses, every recipient treated) | response in the spleen (human FLT3−ITD+AML cells; RK-20449 alone, 11 additional cases) | response of FLT3−ITD+human AML cells to single agent in vivo (human FLT3−ITD+AML cells; all 19 cases tested) | remaining AML cells in BM, spleen and PB (human FLT3−ITD+AML cells; flow cytometry and immunohistochemistry, complete-responder patients, all recipients treated) | BCL-2 dependence for leukemia cell survival (human FLT3−ITD+AML cells; in vivo kinase inhibition) | cases with residual AML cells in the BM of at least one treated mouse (human FLT3−ITD+AML cells; single agent RK-20449)
CC1(C)CCC(CN2CCN(c3ccc(C(=O)NS(=O)(=O)c4ccc(NCC5CCOCC5)c([N+](=O)[O-])c4)c(Oc4cnc5[nH]ccc5c4)c3)CC2)=C(c2ccc(Cl)cc2)C1 [ABT-199, reference compound] | limited responses | every secondary recipient | – | – | – | – | – | –
CN1CCN([C@H]2CC[C@H](n3cc(-c4ccc(Oc5ccccc5)cc4)c4c(N)ncnc43)CC2)CC1 [RK-20449, 7-((1R,4R)-4-(4-methylpiperazin-l-yl)cyclohexyl)-5-(4-phenoxyphenyl)-7H-pyrrolo[2,3-d]pyrimidin-4-amine] | – | every secondary recipient | < 5% | complete responses in the spleen in a majority of recipients tested | significant responses | less than 0.01% | enhanced | 14 of 19
